In paper PMC5735376, “Dual Level Statistical Investigation of Equilibrium Solubility in Simulated Fasted and Fed Intestinal Fluid” (Molecular Pharmaceutics, 2017):
Like-named read-outs stand apart in the source and are kept apart here.

Assays:
[1] = Equilibrium solubility in simulated intestinal fluid, dual level DoE, fasted arm; type: physicochemical; conditions: for direction of monoglyceride effect on solubility (standardized effect): fasted arm, Figure 3; for statistical significance of DoE factor BS:PL on equilibrium solubility / statistical significance of DoE factor bile salt on equilibrium solubility / statistical significance of DoE factor cholesterol on equilibrium solubility / statistical significance of DoE factor lecithin on equilibrium solubility / statistical significance of DoE factor monoglyceride on equilibrium solubility / statistical significance of DoE factor pH on equilibrium solubility / statistical significance of DoE factor sodium oleate on equilibrium solubility: fasted, current study (Figure 3); for significant DoE factors influencing solubility: fasted and fed study arms together (14 possible values per drug), significance ±4
Excerpt: (§1) For each media parameter (bile salt, lecithin, sodium oleate, monoglyceride, cholesterol, pH and BS: PL ratio) lower and upper limit concentration values for fasted and fed states were defined, Table 1. Using Minitab 17.2.1 and a custom experimental design, a 1/16 of the full factorial DoE with the seven factors and two levels (lower and upper limits) was constructed (8 experiments around the upper and lower levels plus two center points) separately for the fasted and the fed states. These two tables were then applied as an input for a factorial custom design of experiment which combined the fasted and fed using all 20 data points to provide an overall analysis. The study therefore consists of three arms, two smaller (10 data point) fasted and fed arms, which are then merged into a larger (20 data point) combined arm.
(§2) When designing and analyzing the DoE, only a factor’s main effects and 2 way interactions have been considered and 3 way interactions or more were not included. For each DoE the magnitude for each factor’s effect on equilibrium solubility was determined by the standardized effect value for all of the individual factors and the significant 2-way interactions. This value was used to articulate whether these factors are increasing or decreasing drug solubility.
(§3) The solution was prepared by the addition of an excess amount (above the estimated solubility) of solid for each compound investigated to a centrifuge tube (15 mL Corning Centristar cap, polypropylene RNase/DNase free, nonpyrogenic) followed by the addition of each component of the simulated intestinal fluid media according to the run order generated by the DoE. After all of the media components were added, pH was adjusted to 5, 6, or 7 according to the run order using 0.1 M HCl or 0.1 M KOH and tubes were capped and placed on an orbital shaker (OS 5 basic Yellowline, IKA, Germany) for 1 h after which the pH was readjusted if required. The 20 different tubes were then shaken in a tube rotator for 24 h at 40 rpm at 37 °C to simulate intestinal fluid conditions. After 24 h, a 1 mL amount was taken from each of the 20 tubes and transferred to a 1.5 mL Eppendorf tube then centrifuged at 15 000 rpm for 5 min. Following centrifugation 0.5 mL of the supernatant solution was transferred to an HPLC vial to analyze drug solubility using HPLC (Table 4).

[2] = Statistical comparison of equilibrium solubility data sets (Mann-Whitney test / two-sample t-test); type: physicochemical; conditions: for statistical comparison of fasted against fed equilibrium solubility: current dual level DoE, where significant, fasted solubility lower than fed; for statistical comparison of dual level fasted with published fasted equilibrium solubility: current fasted arm vs published fasted DoE; for statistical comparison of dual level fed with published fed equilibrium solubility: current fed arm vs published fed DoE
Excerpt: The Kolmogorov normality test was used in Minitab to assess the normality distribution of each data set. A Mann–Whitney test was used to evaluate the median between two data sets (not normally distributed) and the two-sample t-test was used to evaluate the mean of two data sets (normally distributed).

[3] = Equilibrium solubility in simulated intestinal fluid, dual level DoE, combined fasted and fed arm; type: physicochemical; conditions: combined arm; for significance of sodium oleate for solubility: Figure 4, significance ±2, positive solubility impact
Excerpt: as §1, §2, §3

[4] = parameters: method as in ref 13, Figure 2; conditions: fasted, published; Figure 2; cited from earlier work
[5] = Equilibrium solubility in simulated intestinal fluid, dual level DoE, fed arm; type: physicochemical; conditions: for statistical significance of DoE factor BS:PL on equilibrium solubility / statistical significance of DoE factor bile salt on equilibrium solubility / statistical significance of DoE factor cholesterol on equilibrium solubility / statistical significance of DoE factor lecithin on equilibrium solubility / statistical significance of DoE factor monoglyceride on equilibrium solubility / statistical significance of DoE factor pH on equilibrium solubility / statistical significance of DoE factor sodium oleate on equilibrium solubility: fed, current study (Figure 3)
Excerpt: as §1, §2, §3

[6] = parameters: method as in ref 14, Figure 2; conditions: fed, published; Figure 2; cited from earlier work

| Compound | statistical significance of DoE factor BS:PL on equilibrium solubility [1] | statistical significance of DoE factor bile salt on equilibrium solubility [1] | statistical significance of DoE factor cholesterol on equilibrium solubility [1] | statistical significance of DoE factor lecithin on equilibrium solubility [1] | statistical significance of DoE factor monoglyceride on equilibrium solubility [1] | statistical significance of DoE factor pH on equilibrium solubility [1] | statistical significance of DoE factor sodium oleate on equilibrium solubility [1] | statistical comparison of fasted against fed equilibrium solubility [2] | statistical significance of DoE factor bile salt on equilibrium solubility [4] | statistical significance of DoE factor lecithin on equilibrium solubility [4] | statistical significance of DoE factor pH on equilibrium solubility [4] | statistical significance of DoE factor sodium oleate on equilibrium solubility [4] | statistical significance of DoE factor BS:PL on equilibrium solubility [5] | statistical significance of DoE factor bile salt on equilibrium solubility [5] | statistical significance of DoE factor cholesterol on equilibrium solubility [5] | statistical significance of DoE factor lecithin on equilibrium solubility [5] | statistical significance of DoE factor monoglyceride on equilibrium solubility [5] | statistical significance of DoE factor pH on equilibrium solubility [5] | statistical significance of DoE factor sodium oleate on equilibrium solubility [5] | statistical significance of DoE factor bile salt on equilibrium solubility [6] | also measured |
| --- | --- | --- | --- | --- | --- | --- | --- | --- | --- | --- | --- | --- | --- | --- | --- | --- | --- | --- | --- | --- | --- |
| C[C@@H](O[C@H]1OCCN(Cc2n[nH]c(=O)[nH]2)[C@H]1c1ccc(F)cc1)c1cc(C(F)(F)F)cc(C(F)(F)F)c1 [aprepitant] | NS ^e | NS ^e ^g | NS ^e | S ^d ^g | S ^d | NS ^e ^g | S ^d | no statistically significant difference | S ^d ^g | NS ^e ^g | S ^d ^g | S ^d | NS ^e | NS ^e ^g | NS ^e | NS ^e ^g | NS ^e | NS ^e ^g | NS ^e ^g | S ^d ^g | direction of monoglyceride effect on solubility (standardized effect) [1]: positively impacts; statistical comparison of dual level fasted with published fasted equilibrium solubility [2]: significantly different; statistical comparison of dual level fed with published fed equilibrium solubility [2]: significantly different; significance of lecithin for solubility ([3]; Figure 4, significance ±2): significant; significance of sodium oleate for solubility [3]: significant; statistical significance of DoE factor lecithin on equilibrium solubility [6]: S ^d ^g; statistical significance of DoE factor monoglyceride on equilibrium solubility [6]: NS ^e; statistical significance of DoE factor pH on equilibrium solubility [6]: S ^d ^g; statistical significance of DoE factor sodium oleate on equilibrium solubility [6]: S ^d ^g |
| COc1ccccc1OCCNCC(O)COc1cccc2[nH]c3ccccc3c12 (stereo not shown) [carvedilol] | NS ^e | NS ^e ^g | NS ^e | NS ^e ^g | NS ^e | NS ^e ^g | NS ^e ^g | significant difference | S ^d ^g | S ^d ^g | S ^d ^g | S ^d ^g | NS ^e | NS ^e ^g | NS ^e | NS ^e | NS ^e ^g | NS ^e ^g | NS ^e ^g | S ^d ^g | significant DoE factors influencing solubility [1]: no significant factors; statistical comparison of dual level fed with published fed equilibrium solubility [2]: significantly different; significance of sodium oleate for solubility [3]: significant; statistical significance of DoE factor lecithin on equilibrium solubility [6]: NS ^e; statistical significance of DoE factor monoglyceride on equilibrium solubility [6]: S ^d ^g; statistical significance of DoE factor pH on equilibrium solubility [6]: S ^d ^g; statistical significance of DoE factor sodium oleate on equilibrium solubility [6]: S ^d ^g |
| CCOC(=O)C1=C(C)NC(C)=C(C(=O)OC)C1c1cccc(Cl)c1Cl (stereo not shown) [felodipine] | NS ^e | NS ^e ^g | NS ^e | S ^d | S ^d | S ^d | S ^d | significant difference | S ^d ^g | S ^d | S ^d | S ^d | NS ^e | S ^d | NS ^e | S ^d | S ^d ^g | NS ^e ^g | S ^d | S ^d | significant DoE factors influencing solubility [1]: eight out of a possible 14; direction of monoglyceride effect on solubility (standardized effect) [1]: positive effect; statistical comparison of dual level fasted with published fasted equilibrium solubility [2]: significantly different; significance of bile salt for solubility ([3]; Figure 4, significance ±2): significant; significance of cholesterol for solubility ([3]; Figure 4, significance ±2): significant; direction of monoglyceride effect on solubility (standardized effect) ([5]; fed arm, Figure 3): positive effect; statistical significance of DoE factor lecithin on equilibrium solubility [6]: S ^d; statistical significance of DoE factor monoglyceride on equilibrium solubility [6]: NS ^e ^g; statistical significance of DoE factor pH on equilibrium solubility [6]: S ^d ^g; statistical significance of DoE factor sodium oleate on equilibrium solubility [6]: S ^d |
| COc1ccc2c(c1)c(CC(=O)O)c(C)n2C(=O)c1ccc(Cl)cc1 [indomethacin] | NS ^e | NS ^e ^g | NS ^e | NS ^e | NS ^e | S ^d | NS ^e ^g | no statistically significant difference | S ^d ^g | NS ^e | S ^d | S ^d ^g | NS ^e | NS ^e ^g | NS ^e | NS ^e | NS ^e | S ^d | NS ^e ^g | S ^d ^g | significance of pH for solubility ([3]; Figure 4, significance ±2): significant; significant two way factor interactions on solubility ([3]; eight two way interactions, Figure 4): no significant interactions; statistical significance of DoE factor lecithin on equilibrium solubility [6]: NS ^e; statistical significance of DoE factor monoglyceride on equilibrium solubility [6]: NS ^e; statistical significance of DoE factor pH on equilibrium solubility [6]: S ^d; statistical significance of DoE factor sodium oleate on equilibrium solubility [6]: S ^d ^g |
